Measurements reported in patent publication US20160279190A1, “MODULATION OF AXON DEGENERATION” (GENENTECH, INC., priority 2008, published 2016).

System: DRGs
Experiment: Campenot chamber local axon degeneration, anti-NGF in axon compartment
Assay type: cell-based, mouse
Conditions: inhibitor 15 μM; anti-NGF in axon compartment, 28 hours

`O=C(O)c1ccc2c3c1cccc3c(=O)n1c3ccccc3nc21` [STO-609] was tested, and the “Axon Compartment (axon protected when inhibitor is in axon compartment)” value was “Yes (1)” and the “Cell Body Compartment (axon protected when inhibitor is in cell body compartment)” value was “No (1)”.
